Laboratory results: patent EP0583821A1, “Atriopeptins, guanylate cyclase activators, and phosphodiesterase inhibitors as treatment for glaucoma, hydrocephalus and cerebral edema (cranial fluid volume dysfunction)” (THE GENERAL HOSPITAL CORPORATION, priority 1987, dated 1988)

Key:
guanylate cyclase [1] = molecular target: T1, guanylate cyclase (Oryctolagus cuniculus, UniProt G1TXB5); experiment: Guanylate cyclase in membranes of ventral superior sagittal dural sinus (arachnoid villi); format: biochemical, pig or rabbit; conditions: small stimulation only at high concentrations; 4 min
T1 sequence (G1TXB5 28-1056): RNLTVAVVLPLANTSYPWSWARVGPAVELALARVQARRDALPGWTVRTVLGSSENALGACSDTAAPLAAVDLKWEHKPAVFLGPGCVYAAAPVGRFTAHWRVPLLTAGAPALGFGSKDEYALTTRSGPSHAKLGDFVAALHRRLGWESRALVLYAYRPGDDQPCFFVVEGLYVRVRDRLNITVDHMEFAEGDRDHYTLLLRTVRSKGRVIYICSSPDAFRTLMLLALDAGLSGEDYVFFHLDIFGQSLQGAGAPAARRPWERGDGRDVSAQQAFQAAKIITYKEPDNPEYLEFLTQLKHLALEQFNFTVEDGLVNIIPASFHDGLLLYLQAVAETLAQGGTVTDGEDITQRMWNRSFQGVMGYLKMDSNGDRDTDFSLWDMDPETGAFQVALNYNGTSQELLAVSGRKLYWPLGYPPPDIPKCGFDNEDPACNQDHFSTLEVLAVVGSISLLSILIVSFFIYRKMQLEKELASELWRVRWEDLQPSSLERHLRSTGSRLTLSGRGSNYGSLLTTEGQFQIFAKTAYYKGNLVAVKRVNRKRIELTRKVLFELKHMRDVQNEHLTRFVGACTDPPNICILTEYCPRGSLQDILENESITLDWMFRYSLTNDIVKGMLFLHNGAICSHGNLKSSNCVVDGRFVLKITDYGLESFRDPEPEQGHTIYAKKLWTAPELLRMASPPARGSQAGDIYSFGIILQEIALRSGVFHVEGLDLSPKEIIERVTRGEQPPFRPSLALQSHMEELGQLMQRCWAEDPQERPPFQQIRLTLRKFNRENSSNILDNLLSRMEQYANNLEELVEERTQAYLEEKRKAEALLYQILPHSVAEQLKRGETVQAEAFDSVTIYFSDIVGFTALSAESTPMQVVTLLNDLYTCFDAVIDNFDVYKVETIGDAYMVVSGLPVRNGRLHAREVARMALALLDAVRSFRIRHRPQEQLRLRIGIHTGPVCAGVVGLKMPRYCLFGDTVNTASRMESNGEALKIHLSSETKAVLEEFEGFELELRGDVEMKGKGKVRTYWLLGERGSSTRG
Protocol: (§1) The effect of rANP on membrane-bound guanylate cyclase and adenylate cyclase activity in various brain-barrier tissues and tissue fractions from rabbit was compared with its activity in cerebrum and cerebellum. Guanylate cyclase was measured as the rate of cyclic GMP formation by modifications of the technique of Waldman et al., supra, incorporated herein by reference. Briefly, tissues were homogenized (10 mg wet weight per milliliter) in 50 mM tris-HCl, pH 8.0, 1 mM EDTA, 1 mM dithiothreitol, and 250 mM sucrose and centrifuged at 100,000g to obtain a P1 pellet. Reaction tubes contained (in 0.3 ml), 50 mM tris, pH 7.6, 6 mM MnCl₂, 0.5 mM 3-isobutyl, 1-methylxanthine (IBMX), 10 mM theophylline, 3 mM GTP, hormone (in 0.03 ml containing 2.5 mM ascorbic acid and 0.1% bovine serum albumin), and 0.06 ml of P1 fraction (40 to 60 ug of protein). The reaction (4 minutes at 30°C) was started by addition of GTP and terminated by addition of 0.3 ml of 150 mM sodium acetate (pH 4.0) and boiling for 3 minutes. Cyclic GMP formed was subsequently measured by radioimmunoassay as described in example 6, infra. Under these conditions, guanylate cyclase activity was linear with time and tissue concentration. Adenylate cyclase activity in P1 fractions was measured according to the method described by Nathanson, et al., Science; 204:843 (1979); Mol. Pharmacol. 18:199 (1980), see Figure 1C . […] Neurosci. […]

guanylate cyclase [2] = experiment: Guanylate cyclase in pia-arachnoid preparation; format: biochemical, rabbit
Protocol: as §1

albino rabbits = experiment: Intraocular pressure after unilateral intravitreal injection; format: in vivo, rabbit
Protocol: The measurement of intraocular pressure (IOP), was performed using procedures similar to those described in Nathanson, Brit. J. Pharmacol., 73:97 (1981) and Nathanson, Current Eye Res., 4:191 (1985). Briefly, male (3-5 kg), New Zealand white rabbits were housed under standard conditions and exposed to a 12 hr light-dark cycle. IOP was measured with a Perkins applanation tonometer after topical anesthesia with 0.4% benoxinate (and 0.25% sodium fluorescein). The tonometer had been calibrated previously by connecting the anterior chamber of enucleated rabbit eyes to a manometer (and reservoir) and taking tonometer readings at different pressures. A number of preliminary IOP readings were made in order to accommodate the animals to the measurement procedure. Readings were then taken just prior to drug or vehicle injection and at 3, 9, 20, 27, 44, 51, 72, and 144 hours post-injection.
Following topical anesthesia with 0.4% benoxinate, rabbits received rat atrial natriuretic peptide 1-28 (rANP) via a 10 microliter, intravitreal injection, through a 30g 1/2" needle, the tip of which was positioned at the approximate center of the eye. Drug was dissolved in a solution of artificial aqueous humor containing (in mmol/liter): NaCl 130, KCl 2.7, […] 18.3, MgCl₂ 1.33, CaCl₂ 1.5, Glucose 10, HEPES 20, and L-ascorbic acid, 2.5. The contralateral eye received a 10 microliter injection of vehicle alone. In order to evaluate the possible effects of intravitreal injection, per se, on IOP, additional rabbits received a 10 microliter intravitreal injection of vehicle in one eye only.
The contralateral eye received intravitreal injection of vehicle alone. Over a period of 9 hours, the ipsilateral eyes underwent a marked decline in pressure of about 5mm (Hg). This degree of hypotension persisted until about 48 hours post-injection and then underwent a slow recovery over the following four days. The decrease in pressure, compared with pre-injection IOP, was statistically significant at all time points from 3 to 72 hours post-injection. Values shown are mean ± SEM. Filled circles represent the IOP in the ipsilateral eye; open circles represent the IOP in the contralateral eye. *(p < .05); **(p < .01), for paired Students T-test relative to preinjection pressure (time 0). […] During the entire period, no affect on pupillary diameter of either the ipsilateral or contralateral eye was noted.
This contralateral decrease was statistically significant (p <.05 vs. pre-injection IOP) at 20 and 44 hours following injection. […]

Substance: Ser-Leu-Arg-Arg-atriopeptin III (APIII) [rANP 1-28]
- Ka (guanylate cyclase [1]): > 1000 nM
- degree of enzyme stimulation (guanylate cyclase [2]): 15%
- persistence of hypotension post-injection (albino rabbits; 0.3 nmoles intravitreal): about 48 hours
- IOP in the contralateral, vehicle-injected eye (albino rabbits; 0.3 nmoles intravitreal in ipsilateral eye): also showed a decrease
- decline in intraocular pressure, ipsilateral eye (albino rabbits; 0.3 nmoles intravitreal, eight albino rabbits, over a period of 9 hours): about 5 mm (Hg)
- effect on pupillary diameter (albino rabbits; ipsilateral or contralateral eye, entire period): no affect
